Results from ChEMBL document CHEMBL5579808, “Development of 1,5-diarylpyrazoles as EGFR/JNK-2 dual inhibitors: design, synthesis, moleecular docking, and bioactivity evaluation” (Bioorg Med Chem Lett, 2024).
The source made the active and inactive calls. The calls are words filed in the database; no cut-off is given here.

What was measured:
[1] = tested on: HeLa; test: Growth inhibition of human HeLa cells at 100 uM by WST-8 assay relative to control; assay type: functional; conditions: read-out: GI
[2] = tested on: DLD-1; test: Growth inhibition of human DLD-1 cells at 100 uM by WST-8 assay relative to control; assay type: functional; conditions: read-out: GI
[3] = tested on: K562; test: Growth inhibition of human K562 cells at 100 uM by WST-8 assay relative to control; assay type: functional; conditions: read-out: GI
[4] = Growth inhibition of human SUIT-2 cells at 100 uM by WST-8 assay relative to control; assay type: functional; conditions: read-out: GI
[5] = tested on: HepG2; test: Growth inhibition of human HepG2 cells at 100 uM by WST-8 assay relative to control; assay type: functional; conditions: read-out: GI
[6] = tested on: DLD-1; test: Antiproliferative activity against human DLD-1 cells by WST-8 assay; assay type: functional, cell-based
[7] = tested on: HeLa; test: Antiproliferative activity against human HeLa cells by WST-8 assay; assay type: functional, cell-based
[8] = tested on: HepG2; test: Antiproliferative activity against human HepG2 cells by WST-8 assay; assay type: functional, cell-based
[9] = target: Epidermal growth factor receptor (Mus musculus, UniProt Q01279); test: Inhibition of recombinant mouse EGFR by ELISA
[10] = target: Mitogen-activated protein kinase 9 (Homo sapiens, UniProt P45984); test: Inhibition of JNK2 (unknown origin) incubated for 90 mins by ELISA
[11] = tested on: K562; test: Antiproliferative activity against human K562 cells by WST-8 assay; assay type: functional, cell-based
[12] = Antiproliferative activity against human SUIT-2 cells by WST-8 assay; assay type: functional, cell-based
[13] = tested on: HeLa; test: Induction of cell cycle arrest at G1 phase in human HeLa cells at IC50 incubated for 24 hrs by PI staining based flow cytometry (reference value: 68 %); assay type: functional
[14] = tested on: HeLa; test: Induction of cell cycle arrest at G1 phase in human HeLa cells at IC50 incubated for 48 hrs by PI staining based flow cytometry (reference value: 68 %); assay type: functional
[15] = tested on: HeLa; test: Induction of cell cycle arrest at S phase in human HeLa cells at IC50 incubated for 24 hrs by PI staining based flow cytometry (reference value: 8 %); assay type: functional
[16] = tested on: HeLa; test: Induction of cell cycle arrest at S phase in human HeLa cells at IC50 incubated for 48 hrs by PI staining based flow cytometry (reference value: 8 %); assay type: functional
[17] = tested on: HeLa; test: Induction of cell cycle arrest at G2 phase in human HeLa cells at IC50 incubated for 24 hrs by PI staining based flow cytometry (reference value: 7 %); assay type: functional
[18] = tested on: HeLa; test: Induction of cell cycle arrest at G2 phase in human HeLa cells at IC50 incubated for 48 hrs by PI staining based flow cytometry (reference value: 7 %); assay type: functional
[19] = tested on: HeLa; test: Induction of apoptosis in human HeLa cells assessed as total cells at 2 times IC50 incubated for 24 hrs by Annexin V-FITC/PI staining based flow cytometry (reference value: 1.8 %); assay type: functional
[20] = tested on: HeLa; test: Induction of apoptosis in human HeLa cells assessed as early apoptotic cells at 2 times IC50 incubated for 24 hrs by Annexin V-FITC/PI staining based flow cytometry (reference value: 0 %); assay type: functional
[21] = tested on: HeLa; test: Induction of apoptosis in human HeLa cells assessed as late apoptotic cells at 2 times IC50 incubated for 24 hrs by Annexin V-FITC/PI staining based flow cytometry (reference value: 0 %); assay type: functional
[22] = tested on: HeLa; test: Induction of apoptosis in human HeLa cells assessed as necrotic cells at 2 times IC50 incubated for 24 hrs by Annexin V-FITC/PI staining based flow cytometry (reference value: 1.8 %); assay type: functional
[23] = tested on: HeLa; test: Induction of apoptosis in human HeLa cells assessed as total cells at half of IC50 incubated for 24 hrs by Annexin V-FITC/PI staining based flow cytometry (reference value: 1.8 %); assay type: functional
[24] = tested on: HeLa; test: Induction of apoptosis in human HeLa cells assessed as early apoptotic cells at half of IC50 incubated for 24 hrs by Annexin V-FITC/PI staining based flow cytometry (reference value: 0 %); assay type: functional
[25] = tested on: HeLa; test: Induction of apoptosis in human HeLa cells assessed as late apoptotic cells at half of IC50 incubated for 24 hrs by Annexin V-FITC/PI staining based flow cytometry (reference value: 0 %); assay type: functional
[26] = tested on: HeLa; test: Induction of apoptosis in human HeLa cells assessed as necrotic cells at half of IC50 incubated for 24 hrs by Annexin V-FITC/PI staining based flow cytometry (reference value: 1.8 %); assay type: functional

Epidermal growth factor receptor, sequence (Q01279 whole entry): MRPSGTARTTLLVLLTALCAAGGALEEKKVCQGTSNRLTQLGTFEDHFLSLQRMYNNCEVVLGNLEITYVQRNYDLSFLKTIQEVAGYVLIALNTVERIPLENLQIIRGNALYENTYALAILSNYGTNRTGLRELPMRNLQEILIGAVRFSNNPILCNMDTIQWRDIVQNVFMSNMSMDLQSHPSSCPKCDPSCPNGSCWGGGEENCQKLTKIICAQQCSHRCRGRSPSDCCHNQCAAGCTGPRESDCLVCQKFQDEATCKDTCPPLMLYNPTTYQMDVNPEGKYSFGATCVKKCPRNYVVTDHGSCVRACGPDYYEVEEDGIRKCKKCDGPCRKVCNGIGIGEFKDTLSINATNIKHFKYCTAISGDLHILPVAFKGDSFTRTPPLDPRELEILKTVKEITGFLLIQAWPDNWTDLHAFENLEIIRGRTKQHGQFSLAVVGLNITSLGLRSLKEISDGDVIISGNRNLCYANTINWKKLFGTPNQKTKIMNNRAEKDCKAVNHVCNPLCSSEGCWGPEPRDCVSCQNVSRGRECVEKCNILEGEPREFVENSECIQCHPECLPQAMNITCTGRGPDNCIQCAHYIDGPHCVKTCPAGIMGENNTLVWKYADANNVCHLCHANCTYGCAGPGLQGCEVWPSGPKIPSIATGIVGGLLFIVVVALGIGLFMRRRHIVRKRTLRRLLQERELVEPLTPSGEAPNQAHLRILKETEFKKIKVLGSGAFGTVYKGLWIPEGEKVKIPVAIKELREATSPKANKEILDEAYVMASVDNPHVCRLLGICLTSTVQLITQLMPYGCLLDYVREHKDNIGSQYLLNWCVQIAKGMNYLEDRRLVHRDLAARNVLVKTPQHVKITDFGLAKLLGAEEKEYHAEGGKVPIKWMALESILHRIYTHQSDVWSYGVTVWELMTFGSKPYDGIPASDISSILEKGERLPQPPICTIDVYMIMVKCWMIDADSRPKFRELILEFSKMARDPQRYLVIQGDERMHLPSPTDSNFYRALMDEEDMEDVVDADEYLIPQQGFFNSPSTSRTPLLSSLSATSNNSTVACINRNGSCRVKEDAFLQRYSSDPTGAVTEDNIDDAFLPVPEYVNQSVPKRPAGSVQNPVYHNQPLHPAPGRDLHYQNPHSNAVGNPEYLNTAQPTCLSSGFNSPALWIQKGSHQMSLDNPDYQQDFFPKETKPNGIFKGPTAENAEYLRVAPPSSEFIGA

SMILES	IC50 [6]	IC50 [7]	IC50 [8]	IC50 [9]	IC50 [11]	inhibition of growth at 100 µM [1]	inhibition of growth at 100 µM [2]	inhibition of growth at 100 µM [3]	inhibition of growth at 100 µM [4]	inhibition of growth at 100 µM [5]	IC50 [12]	further results
COc1ccc(-c2cc(C(=O)Nc3ccc(S(N)(=O)=O)cc3)nn2-c2ccccc2)cc1						74%	69%	26%	78%	26%		
COc1ccc(-c2cc(C(=O)Oc3ccc(C=O)cc3OC)nn2-c2ccc(S(N)(=O)=O)cc2)cc1OC						70%	75%	77%	66%	92%		
COc1ccc(-c2cc(C(=O)Nc3ccc(S(N)(=O)=O)cc3)nn2-c2ccccc2)cc1OC						51%	56%	58%	91%	90%		
COc1ccc(-c2cc(C(=O)Oc3ccc(C=O)cc3OC)nn2-c2ccccc2)cc1						30%	61%	61%	91%	11%		
COc1ccc(-c2cc(C(=O)Nc3ccc(S(C)(=O)=O)cc3)nn2-c2ccccc2)cc1						76%	64%	41%	90%	62%	41 µM	
COc1cc(C=O)ccc1OC(=O)c1cc(-c2ccc(Cl)cc2)n(-c2ccccc2)n1						51%	74%	66%	92%	20%		
COc1ccc(-c2cc(C(=O)Oc3ccc(C=O)cc3OC)nn2-c2ccccc2)cc1OC						0%	96%	58%	86%	74%		
CNC(=O)c1cc(Oc2ccc(NC(=O)Nc3ccc(Cl)c(C(F)(F)F)c3)cc2)ccn1 [SORAFENIB]				3.5 µM								
COc1cc(C=O)ccc1OC(=O)c1cc(-c2ccccc2)n(-c2ccccc2)n1						31%	71%	52%	91%	60%		
COc1ccc(-c2cc(C(=O)Nc3ccc(S(C)(=O)=O)cc3)nn2-c2ccccc2)cc1OC						19%	74%	62%	89%	37%		

More lines, main results first:

IC50 [6]	IC50 [7]	IC50 [8]	IC50 [9]	IC50 [11]	SMILES	inhibition of growth at 100 µM [1]	inhibition of growth at 100 µM [2]	inhibition of growth at 100 µM [3]	inhibition of growth at 100 µM [4]	inhibition of growth at 100 µM [5]	IC50 [12]	further results
22 µM	63 µM	10 µM	110 µM		Cc1ccc(-c2cc(C(=O)Nc3ccc(S(C)(=O)=O)cc3)nn2-c2ccccc2)cc1	78%	87%	58%	87%	94%		IC50 [10]: > 200000 nM
5.6 µM	31 µM	7.8 µM	> 1000 µM	14.9 µM	COc1ccc(-c2cc(C(=O)Oc3ccc(C=O)cc3OC)nn2-c2ccc(S(N)(=O)=O)cc2)cc1	78%	104%	85%	95%	82%	5 µM	IC50 [10]: 900 nM
	15 µM	8.9 µM		14.8 µM	COc1cc(C=O)ccc1OC(=O)c1cc(-c2ccc(C)cc2)n(-c2ccccc2)n1	84%	70%	79%	89%	50%		Activity [13]: 64%; Activity [14]: 59%; Activity [15]: 8%; Activity [16]: 5%; Activity [17]: 21%; Activity [18]: 23%; Activity [19]: 86%; Activity [20]: 5.9%; Activity [21]: 48%; Activity [22]: 33%
29.8 µM			2.7 µM	15.4 µM	NS(=O)(=O)c1ccc(NC(=O)c2cc(-c3ccc(Cl)cc3)n(-c3ccccc3)n2)cc1	0%	94%	86%	99%	27%	49.7 µM	IC50 [10]: 3000 nM
33.1 µM					CS(=O)(=O)c1ccc(NC(=O)c2cc(-c3ccccc3)n(-c3ccccc3)n2)cc1	28%	81%	32%	86%	41%		
17 µM	14 µM	2.7 µM	50 µM	7.6 µM	COc1cc(C=O)ccc1OC(=O)c1cc(-c2ccc(C)cc2)n(-c2ccc(S(N)(=O)=O)cc2)n1	95%	100%	95%	87%	101%	17 µM	Activity [13]: 4%; Activity [15]: 83%; Activity [17]: 7%; Activity [23]: 25%; Activity [24]: 0.4%; Activity [25]: 19%; Activity [26]: 5.9%; IC50 [10]: 2000 nM
	27 µM	38 µM		17.2 µM	COc1cc(C=O)ccc1OC(=O)c1cc(-c2ccccc2)n(-c2ccc(S(N)(=O)=O)cc2)n1	79%	100%	82%	95%	84%		
		5.9 µM			NS(=O)(=O)c1ccc(NC(=O)c2cc(-c3ccccc3)n(-c3ccccc3)n2)cc1	12%	64%	89%	91%	107%	18 µM	
5.7 µM	16 µM		1.7 µM	21.8 µM	CS(=O)(=O)c1ccc(NC(=O)c2cc(-c3ccc(Cl)cc3)n(-c3ccccc3)n2)cc1	101%	98%	88%	94%	50%	25 µM	Activity [13]: 6%; Activity [15]: 82%; Activity [17]: 6%; Activity [19]: 94%; Activity [20]: 1.4%; Activity [21]: 75%; Activity [22]: 18%; IC50 [10]: > 200000 nM
30 µM	0.1 µM	22 µM		13.3 µM	COc1cccc2c1C(=O)c1c(O)c3c(c(O)c1C2=O)C[C@@](O)(C(C)=O)C[C@@H]3O[C@H]1C[C@H](N)[C@H](O)[C@H](C)O1 [DAUNORUBICIN]	100%	84.2%	100%	92%	100%	9 µM	
16.1 µM	16.7 µM	3.6 µM	> 1000 µM		Cc1ccc(-c2cc(C(=O)Nc3ccc(S(N)(=O)=O)cc3)nn2-c2ccccc2)cc1	0%	99%	65%	96%	101%	13 µM	inhibition [10]: inactive
5 µM				17.1 µM	COc1cc(C=O)ccc1OC(=O)c1cc(-c2ccc(Cl)cc2)n(-c2ccc(S(N)(=O)=O)cc2)n1	51%	97%	85%	94%	54%	49.8 µM	
